From ChEMBL document CHEMBL1151499, “Synthesis of a piperidinomethylthiophene derivative as H2-antagonist with inhibitory activity against Helicobacter pylori” (Bioorg Med Chem Lett, 1996)
Converted amounts (≈) assume the structure as drawn.

Legend:
Assay type in all cases: functional
[1] = target: Histamine H2 receptor (Cavia porcellus) (UniProt P47747); experiment: Compound was tested for Histamine H2 receptor antagonistic activity at 10 ug/ml
Helicobacter pylori = experiment: Compound was tested for inhibitory activity against Helicobacter pylori No. 9470
Histamine H2 receptor = Histamine H2 receptor (Cavia porcellus, UniProt P47747); experiment: Histamine H2 receptor antagonistic activity
Chain of Histamine H2 receptor (P47747 whole entry): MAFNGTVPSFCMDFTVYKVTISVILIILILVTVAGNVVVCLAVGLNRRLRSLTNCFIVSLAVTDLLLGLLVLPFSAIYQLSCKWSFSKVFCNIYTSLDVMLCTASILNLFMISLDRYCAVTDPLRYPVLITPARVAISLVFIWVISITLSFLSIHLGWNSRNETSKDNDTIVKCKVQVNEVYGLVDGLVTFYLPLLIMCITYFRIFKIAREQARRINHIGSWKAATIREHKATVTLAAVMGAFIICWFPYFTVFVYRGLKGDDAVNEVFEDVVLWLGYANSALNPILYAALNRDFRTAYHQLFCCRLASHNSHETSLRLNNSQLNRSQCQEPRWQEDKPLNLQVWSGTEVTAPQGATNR

Chain of Histamine H2 receptor (Cavia porcellus) (P47747 whole entry): as above

inhibition [1] [%]	MIC (Helicobacter pylori) [µg/mL]	IC50 (Histamine H2 receptor) [µM]	SMILES
43	25 (≈ 50.7 µM)	–	O=c1c(NC/C=C\COc2csc(CN3CCCCC3)c2)c(NCC(F)(F)C(F)(F)F)c1=O
39	6.25 (≈ 11.5 µM)	–	O=c1c(NC/C=C\COc2csc(CN3CCCCC3)c2)c(NCC(F)(F)C(F)(F)C(F)(F)F)c1=O
–	> 100	3.34	CN/C(=C/[N+](=O)[O-])NCCSCc1ccc(CN(C)C)o1 [RANITIDINE]
–	100 (≈ 311 µM)	0.685	CN(C)Cc1cc(OC/C=C\C/N=c2\c(O)c(O)c2=N)cs1
–	12.5 (≈ 31 µM)	1.93	CC(C)/N=c1\c(O)c(O)\c1=N/C/C=C\COc1csc(CN2CCCCC2)c1
–	> 100	4.1	CC(=O)OCC(=O)NCCCOc1cccc(CN2CCCCC2)c1 [ROXATIDINE ACETATE]
–	25 (≈ 60.3 µM)	0.748	N#CCCNc1c(NC/C=C\COc2csc(CN3CCCCC3)c2)c(=O)c1=O
–	12.5 (≈ 33.3 µM)	1.84	C/N=c1\c(O)c(O)\c1=N/C/C=C\COc1csc(CN2CCCCC2)c1
–	> 100	1.14	COCC/N=c1\c(O)c(O)\c1=N/C/C=C\COc1csc(CN2CCCCC2)c1
–	1.56 (≈ 3.83 µM)	1.06	O=c1c(NC/C=C\COc2csc(CN3CCCCC3)c2)c(NCCF)c1=O
–	> 100	0.809	CN(C)CC/N=c1\c(O)c(O)\c1=N/C/C=C\COc1csc(CN2CCCCC2)c1
–	> 100	1.27	C=CCNc1c(NC/C=C\COc2csc(CN3CCCCC3)c2)c(=O)c1=O
–	100 (≈ 277 µM)	0.443	Nc1c(NC/C=C\COc2csc(CN3CCCCC3)c2)c(=O)c1=O

SMILES	inhibition [1] [%]	MIC (Helicobacter pylori) [µg/mL]	IC50 (Histamine H2 receptor) [µM]
CN/C(=N\CCSCc1nc[nH]c1C)NC#N [CIMETIDINE]	–	> 100	–
